Earlier results, collected in patent US20050239743A1, “Compositions and methods to inhibit restenosis” (Pro-Pharmaceuticals, Inc., priority 2004, published 2005).

Conditions: long-term use 10,000 units/day, s.c., following coronary angioplasty

heparin
abnormal hemorrhage supervening: 41%
coronary restenosis, share of the cases (control restenosis value 33%): 82%
